Experimental data: US9776972B2, “Pyrazole derivatives as arginine methyltransferase inhibitors and uses thereof” (priority 2013, dated 2017)
Like-named read-outs stand apart in the source and are kept apart here.

Assays:
[1] = target: human PRMT8 (Homo sapiens, UniProt Q9NR22); assay: PRMT8 Biochemical Assay (3H-SAM Flashplate, peptide substrate)
Source text: S-adenosylmethionine (SAM), S-adenosylhomocysteine (SAH), bicine, Tween20, dimethylsulfoxide (DMSO), bovine skin gelatin (BSG), isopropyl-β-D-thiogalactopyranoside (IPTG), and Tris(2-carboxyethyl)phosphine hydrochloride solution (TCEP) were purchased from Sigma-Aldrich at the highest level of purity possible. ^3H-SAM was purchase from American Radiolabeled Chemicals with a specific activity of 80 Ci/mmol. 384-well streptavidin Flashplates were purchased from PerkinElmer.
Peptide representative of human histone H4 residues 31-45 was synthesized with an N-terminal linker-affinity tag motif and a C-terminal amide cap by 21st Century Biochemicals.
E. coli (BL21(DE3) Gold, Stratagene) made competent by the CaCl2 method were transformed with the PRMT8 construct and ampicillin selection. Protein over-expression was accomplished by growing the PRMT8 expressing E. coli clone and inducing expression with 0.3 mM IPTG at 16° C. The culture was grown for 12 hours, harvested by centrifugation, and stored at −80° C. for purification.
GST-tagged PRMT8 was eluted with 50 mM Tris, 2 mM glutathione, pH 7.8. Pooled fractions were cleaved by thrombin (10 U) and dialysed in buffer A. GST was removed by reloading the cleaved protein sample onto glutathione sepharose column and PRMT8 was collected in the flow-through fractions. PRMT8 was purified further by ceramic hydroxyapatite chromatography. The column was washed with 50 mM phosphate buffer, 100 mM NaCl, 5% glycerol, 5 mM β-mercaptoethanol, pH 7.8 and PRMT8 was eluted by 100 mM phosphate in the same buffer. Protein was concentrated and buffer was exchanged to 50 mM Tris, 300 mM NaCl, 10% glycerol, 5 mM β-mercaptoethanol, pH 7.8 by ultrafiltration.
General Procedure for PRMT8 Enzyme Assays on Peptide Substrates.
The assays were all performed in a buffer consisting of 20 mM Bicine (pH=7.6), 1 mM TCEP, 0.005% BSG, and 0.002% Tween 20, prepared on the day of use. […] DMSO (1 ul) was added to Columns 11, 12, 23, 24, rows A-H for the maximum signal control and 1 ul of SAH, a known product and inhibitor of PRMT8, was added to columns 11, 12, 23, 24, rows I-P for the minimum signal control. A cocktail (40 ul) containing the PRMT8 enzyme was added by Multidrop Combi (Thermo-Fisher). The compounds were allowed to incubate with PRMT8 for 30 min at room temperature, then a cocktail (10 ul) containing ^3H-SAM and peptide was added to initiate the reaction (final volume=51 ul). […] The assays were stopped by the addition of non-radiolabeled SAM (10 ul) to a final concentration of 400 uM, which dilutes the ^3H-SAM to a level where its incorporation into the peptide substrate is no longer detectable. 50 ul of the reaction in the 384-well polypropylene plate was then transferred to a 384-well Flashplate and the biotinylated peptides were allowed to bind to the streptavidin surface for at least 1 hour before being washed once with 0.1% Tween20 in a Biotek ELx405 plate washer. The plates were then read in a PerkinElmer TopCount plate reader to measure the quantity of ^3H-labeled peptide bound to the Flashplate surface, measured as disintegrations per minute (dpm) or alternatively, referred to as counts per minute (cpm).
Where dpm=disintegrations per minute, cmpd=signal in assay well, and min and max are the respective minimum and maximum signal controls.
Where top and bottom are the normally allowed to float, but may be fixed at 100 or 0 respectively in a 3-parameter fit. The Hill Coefficient normally allowed to float but may also be fixed at 1 in a 3-parameter fit. Y is the % inhibition and X is the compound concentration.

[2] = target: T1, human PRMT6 (Homo sapiens, UniProt Q96LA8); assay: PRMT6 Biochemical Assay (3H-SAM Flashplate, peptide substrate)
T1 construct: Flag-PRMT6-His; made in house; host or cells: HEK 293F cells (BacMam baculovirus)
T1 sequence (Q96LA8 with tags, fused parts or gaps): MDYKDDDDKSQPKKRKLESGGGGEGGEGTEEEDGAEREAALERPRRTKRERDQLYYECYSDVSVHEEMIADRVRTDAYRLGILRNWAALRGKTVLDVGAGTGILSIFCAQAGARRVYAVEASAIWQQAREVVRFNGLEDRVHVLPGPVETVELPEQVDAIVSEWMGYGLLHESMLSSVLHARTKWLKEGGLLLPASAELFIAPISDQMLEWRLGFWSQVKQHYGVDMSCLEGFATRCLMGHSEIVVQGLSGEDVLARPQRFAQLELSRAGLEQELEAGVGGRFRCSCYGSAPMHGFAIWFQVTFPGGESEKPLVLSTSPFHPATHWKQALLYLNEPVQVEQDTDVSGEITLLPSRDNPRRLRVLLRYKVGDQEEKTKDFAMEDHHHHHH
How it was run: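 Flag-PRMT6-His, expressed in mammalian cells from a BacMam vector, was preincubated with compound for 30 min at room temperature in Bicine pH 7.6 buffer with TCEP, BSG and Tween 20. Reactions were started with ³H-SAM and a biotinylated histone H4 36-50 peptide, then stopped with cold SAM (400 uM final). Labeled peptide was captured on streptavidin Flashplates, counted, and fitted to a 3- or 4-parameter curve.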

[3] = single experiment or average of multiple experiments
[4] = Biochemical IC50 PRMT6, single experiment or average of multiple experiments

Chain of human PRMT8 (Q9NR22 whole entry): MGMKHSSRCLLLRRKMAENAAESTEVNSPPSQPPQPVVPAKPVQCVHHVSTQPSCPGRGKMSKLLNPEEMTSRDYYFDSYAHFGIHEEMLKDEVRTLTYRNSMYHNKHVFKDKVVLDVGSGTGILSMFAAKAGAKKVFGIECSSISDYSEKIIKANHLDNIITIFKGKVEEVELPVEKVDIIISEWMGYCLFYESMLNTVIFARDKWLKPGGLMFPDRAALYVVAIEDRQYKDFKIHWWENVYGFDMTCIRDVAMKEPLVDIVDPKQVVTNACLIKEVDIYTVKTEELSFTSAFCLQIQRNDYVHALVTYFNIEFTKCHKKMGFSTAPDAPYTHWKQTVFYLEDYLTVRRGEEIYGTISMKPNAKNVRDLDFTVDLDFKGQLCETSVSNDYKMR

| IC50 [1, 3] [µM] | IC50 [2, 4] [µM] | IC50 [1] [µM] | IC50 ([2]; Biochemical IC50 PRMT6) [µM] | SMILES | IC50 ([2]; single experiment or average of multiple experiments, read-out: Biochemical IC50 PRMT6) [µM] |
| --- | --- | --- | --- | --- | --- |
| 0.171 | 0.0491 |  |  | CC(C)Oc1ccc(-c2c[nH]nc2CN(C)CCN)cc1F [Compound 144] |  |
| 0.0428 | 0.0256 | < 0.1 | < 0.1 | CNCCN(C)Cc1c[nH]nc1-c1ccc(OC2COC2)cc1 [Compound 283] |  |
| 0.0902 | 0.0405 | < 0.1 | < 0.1 | CNCCN(C)Cc1c[nH]nc1-c1ccc(OCC2CCOCC2)cc1 [Compound 284] |  |
| 0.0692 | 0.0332 | < 0.1 | < 0.1 | CNCCN(C)Cc1c[nH]nc1-c1ccc(OCC2CCOC2)cc1 (stereo not shown) [Compound 285] |  |
| 0.0142 | 0.0143 | < 0.1 | < 0.1 | CNCCN(C)Cc1c[nH]nc1-c1ccc(OCC2CC2)cc1 [Compound 288] |  |
| 0.046 | 0.0365 | < 0.1 | < 0.1 | CNCCN(C)Cc1c[nH]nc1-c1ccc(OCCOC)cc1 [Compound 289] |  |
| 0.0106 | 0.0115 | < 0.1 | < 0.1 | CCC(CC)Oc1ccc(-c2n[nH]cc2CN(C)CCNC)cc1 [Compound 290] |  |
| 0.00852 | 0.0832 | < 0.1 | < 0.1 | CNCCN(C)Cc1c[nH]nc1-c1ccc(OC2CCOCC2)c(Cl)c1 [Compound 292] |  |
| 0.028 | 0.0288 | < 0.1 | < 0.1 | CNCCN(C)Cc1c[nH]nc1-c1ccc(OC2CC2)cc1 [Compound 293] |  |
| 0.0337 | 0.0649 | < 0.1 | < 0.1 | CNCCN(C)Cc1c[nH]nc1-c1ccc(NC(C)C)cc1 [Compound 295] |  |
| 0.0576 | 0.033 | < 0.1 | < 0.1 | CNCCN(C)Cc1c[nH]nc1-c1ccc(NCC(C)C)cc1 [Compound 296] |  |
| 0.00668 | 0.0121 | < 0.1 | < 0.1 | CNCCN(C)Cc1c[nH]nc1-c1ccc(Oc2ccccc2)c(F)c1 [Compound 297] |  |
| 0.0163 | 0.0269 | < 0.1 | < 0.1 | CNCCN(C)Cc1c[nH]nc1-c1ccc(OCC2CC2)c(F)c1 [Compound 298] |  |
| 0.055 | 0.0159 | < 0.1 | < 0.1 | CNCCN(C)Cc1c[nH]nc1-c1ccc(OC2CCC(O)CC2)cc1 (stereo not shown) [Compound 299] |  |
| 0.0647 | 0.177 | < 0.1 | 0.101 to 1 | CNCCN(C)Cc1c[nH]nc1-c1ccc(N(C)C(C)C)cc1 [Compound 300] |  |
| 0.0235 | 0.0253 | < 0.1 | < 0.1 | CNCCN(C)Cc1c[nH]nc1-c1ccc(OC2CC2)c(F)c1 [Compound 301] |  |

| IC50 [1, 3] [µM] | IC50 [2, 4] [µM] | IC50 [1] [µM] | IC50 ([2]; Biochemical IC50 PRMT6) [µM] | SMILES | IC50 ([2]; single experiment or average of multiple experiments, read-out: Biochemical IC50 PRMT6) [µM] |
| --- | --- | --- | --- | --- | --- |
| 0.123 | 0.0497 | 0.101 to 1 | < 0.1 | CNCCN(C)Cc1c[nH]nc1-c1ccc(Oc2ncccn2)cc1 [Compound 302] |  |
| 0.0547 | 0.024 | < 0.1 | < 0.1 | CNCCN(C)Cc1c[nH]nc1-c1ccc(Oc2cncnc2)cc1 [Compound 303] |  |
| 0.0224 | 0.0241 | < 0.1 | < 0.1 | CNCCN(C)Cc1c[nH]nc1-c1ccc(OC2CCC2)cc1 [Compound 304] |  |
| 0.0183 | 0.0276 | < 0.1 | < 0.1 | CNCCN(C)Cc1c[nH]nc1-c1ccc(OC2CCC2)c(F)c1 [Compound 305] |  |
| 0.0185 | 0.0233 | < 0.1 | < 0.1 | CNCCN(C)Cc1c[nH]nc1-c1ccc(OCC(C)C)cc1 [Compound 306] |  |
| 0.014 | 0.0197 | < 0.1 | < 0.1 | CNCCN(C)Cc1c[nH]nc1-c1ccc(OCC2CCC2)cc1 [Compound 307] |  |
| 0.0141 | 0.0131 | < 0.1 | < 0.1 | CC[C@@H](C)Oc1ccc(-c2n[nH]cc2CN(C)CCNC)cc1 [Compound 308] |  |
| 0.013 | 0.0152 | < 0.1 | < 0.1 | CC[C@H](C)Oc1ccc(-c2n[nH]cc2CN(C)CCNC)cc1 [Compound 309] |  |
| 0.017 | 0.0324 | < 0.1 | < 0.1 | CCC(COC)Oc1ccc(-c2n[nH]cc2CN(C)CCNC)cc1 (stereo not shown) [Compound 310] |  |
| 0.0509 | 0.0503 | < 0.1 | < 0.1 | CNCCN(C)Cc1c[nH]nc1-c1ccc(OC(COC)C(C)C)cc1 (stereo not shown) [Compound 311] |  |
| 0.0909 | 0.0195 | < 0.1 | < 0.1 | CNCCN(C)Cc1c[nH]nc1-c1ccc(Oc2ccncn2)cc1 [Compound 312] |  |
| 0.0601 | 0.113 | < 0.1 | 0.101 to 1 | CNCCN(C)Cc1c[nH]nc1-c1ccc(C(C)(C)COC)cc1 [Compound 313] |  |
| 0.11 | 0.0386 | 0.101 to 1 | < 0.1 | CNCCN(C)Cc1c[nH]nc1-c1ccc(OC(COC)CC(C)C)cc1 (stereo not shown) [Compound 314] |  |
| 0.108 | 0.0106 | 0.101 to 1 | < 0.1 | CNCCN(C)Cc1c[nH]nc1-c1ccc(OC2CC(OC)C2)cc1 (stereo not shown) [Compound 315] |  |
| 0.043 | 0.0967 | < 0.1 | < 0.1 | CNCCN(C)Cc1c[nH]nc1-c1ccc(OC(COC)COC)cc1 [Compound 316] |  |

| SMILES | IC50 [1, 3] [µM] | IC50 [2, 4] [µM] | IC50 [1] [µM] | IC50 ([2]; Biochemical IC50 PRMT6) [µM] | IC50 ([2]; single experiment or average of multiple experiments, read-out: Biochemical IC50 PRMT6) [µM] |
| --- | --- | --- | --- | --- | --- |
| CNCCN(C)Cc1c[nH]nc1-c1ccc(OC(CO)C(C)C)cc1 (stereo not shown) [Compound 286] | 0.0553 |  | < 0.1 | < 0.1 | 0.0321 |
| CNCCN(C)Cc1c[nH]nc1-c1ccc(OC2CCOCC2)c(F)c1 [Compound 291] | 0.0254 | 0.0277 | < 0.1 | < 0.1 |  |
